Assay results: article PMC6273226, “New Isoxazolidine-Conjugates of Quinazolinones—Synthesis, Antiviral and Cytostatic Activity” (Molecules, 2016)
Where two headings read alike, the source gives them in different places.

Experiments:
[1] = test system: murine leukemia L1210; test: Cytostatic activity, inhibition of L1210 cell proliferation; format: cell-based; details: Mus musculus, L1210, 48 h, read-out: IC50 L1210
Protocol: (§1) The 50% cytostatic inhibitory concentration (IC50) causing a 50% decrease in cell proliferation was determined against murine leukemia L1210, human lymphocyte CEM, human cervix carcinoma HeLa and immortalized human dermal microvacsular endothelial cells (HMEC-1).
(§2) Murine leukemia (L1210), human T-lymphocyte (CEM), human cervix carcinoma (HeLa) and immortalized human dermal microvascular endothelial cells (HMEC-1) were suspended at 300,000–500,000 cells/mL of culture medium, and 100 μL of a cell suspension was added to 100 μL of an appropriate dilution of the test compounds in 200 μL-wells of 96-well microtiter plates. After incubation at 37 °C for two (L1210), three (CEM) or four (HeLa) days, the cell number was determined using a Coulter counter. The IC50 was defined as the compound concentration required to inhibit cell proliferation by 50%.

[2] = test system: human T-lymphocyte (CEM); test: Cytostatic activity, inhibition of CEM cell proliferation; format: cell-based; details: 72 h, read-out: IC50 CEM
Protocol: as §1, §2

[3] = test system: human cervix carcinoma (HeLa); test: Cytostatic activity, inhibition of HeLa cell proliferation; format: cell-based; details: 96 h, read-out: IC50 HeLa
Protocol: as §1, §2

[4] = test system: immortalized human dermal microvascular endothelial cells (HMEC-1); test: Cytostatic activity, inhibition of HMEC-1 cell proliferation; format: cell-based; details: inhibition of cell proliferation by 50%
Protocol: as §1, §2

[5] = test system: L1210, CEM, HeLa and HMEC-1 cells; test: Cytostatic activity against the tested cell lines (L1210, CEM, HeLa, HMEC-1), summarised in text; format: cell-based; details: for inhibition of cell proliferation at the highest tested concentration: highest tested concentration 250 μM, L1210, CEM
Protocol: as §1, §2

[6] = test system: human cytomegalovirus AD-169 strain; test: Antiviral activity against human cytomegalovirus AD-169 strain in HEL cell cultures; format: cell-based; details: Human betaherpesvirus 5, AD169
[7] = test system: human cytomegalovirus Davis strain; test: Antiviral activity against human cytomegalovirus Davis strain in HEL cell cultures; format: cell-based; details: Human betaherpesvirus 5
[8] = test system: human cytomegalovirus; test: Antiviral activity against human cytomegalovirus, strain not given (AD-169 and Davis); format: cell-based; details: Human betaherpesvirus 5; range given for four compounds, strain not specified
[9] = test system: TK+ VZV Oka strain; test: microbe, parasite or virus in culture; format: cell-based, varicella-zoster virus; details: Human alphaherpesvirus 3, HEL, read-out: Antiviral Activity EC50 TK+ VZV Strain
[10] = test system: TK- VZV 07-1 strain; test: microbe, parasite or virus in culture; format: cell-based, varicella-zoster virus; details: for EC50: Human alphaherpesvirus 3, HEL, read-out: Antiviral Activity EC50 TK- VZV Strain; for activity toward TK- VZV strain: result in words
[11] = test system: human embryonic lung (HEL) cells; details: for Cytotoxicity Cell Morphology MCC: HEL cell cultures, minimum cytotoxic concentration; for cytotoxicity toward uninfected cells: at concentration up to 100 μM
[12] = test system: tobacco mosaic virus (TMV); set-up: method as in PMID 23962399; details: ref [30]; cited from earlier work
[13] = test system: various cancer cell lines; set-up: method as in doi:10.1002/hlca.201200433, PMID 21495659; details: ref [31],[32]; cited from earlier work
[14] = test system: Vero cells; set-up: method as in doi:10.1016/j.phytol.2015.02.007; details: ref [33]; cited from earlier work
[15] = test system: influenza A virus; set-up: method as in PMID 26017319; details: ref [34]; cited from earlier work

Row | SMILES | IC50 [1] [µM] | IC50 [2] [µM] | IC50 [3] [µM] | IC50 [4] [µM] | EC50 [9] [µM] | EC50 [10] [µM] | Cytotoxicity Cell Morphology MCC ([11]; Table 2 (VZV)) [μM] | other results
1 | CCOP(=O)(OCC)[C@H]1C[C@H](c2nc3ccccc3c(=O)[nH]2)ON1C (relative stereo) [trans-11a, Diethyl trans-(2-methyl-5-(4-oxo-3,4-dihydroquinazolin-2-yl)isoxazolidin-3-yl)phosphonate] | > 250 | > 250 | > 250 | > 250 |  |  |  | inhibition of cell proliferation at the highest tested concentration [5]: did not inhibit cell proliferation
2 | CCOP(=O)(OCC)[C@H]1C[C@H](c2nc3ccccc3c(=O)n2Cc2ccccc2)ON1C (relative stereo) [trans-11b/cis-11b (90:10), Diethyl trans-(5-(3-benzyl-4-oxo-3,4-dihydroquinazolin-2-yl)-2-methylisoxazolidin-3-yl)phosphonate] | 49 ± 23 | 28 ± 4 | 82 ± 5 | 83 ± 16 |  |  |  | EC50 [6]: 44.7 µM; EC50 [7]: > 20 µM; EC50 [8]: 27 to 45 µM
3 | CCOP(=O)(OCC)[C@H]1C[C@H](c2nc3ccccc3c(=O)n2Cc2ccccc2[N+](=O)[O-])ON1C (relative stereo) [trans-11c, Diethyl trans-(2-methyl-5-(3-(2-nitrobenzyl)-4-oxo-3,4-dihydroquinazolin-2-yl)isoxazolidin-3-yl)-phosphonate] | 87 ± 22 | 76 ± 9 | 97 | 92 ± 1 | 46.5 | 100 | >100 | EC50 [6]: > 100 µM; EC50 [7]: 44.7 µM; EC50 [8]: 27 to 45 µM
4 | CCOP(=O)(OCC)[C@H]1C[C@H](c2nc3ccccc3c(=O)n2Cc2cccc([N+](=O)[O-])c2)ON1C (relative stereo) [trans-11d/cis-11d (90:10), Diethyl trans-(2-methyl-5-(3-(3-nitrobenzyl)-4-oxo-3,4-dihydroquinazolin-2-yl)isoxazolidin-3-yl)-phosphonate] | 28 ± 11 | 21 ± 4 | 50 ± 4 | 58 |  |  |  | 
5 | CCOP(=O)(OCC)[C@H]1C[C@H](c2nc3ccccc3c(=O)n2Cc2ccc([N+](=O)[O-])cc2)ON1C (relative stereo) [trans-11e/cis-11e (90:10), Diethyl trans-(2-methyl-5-(3-(4-nitrobenzyl)-4-oxo-3,4-dihydroquinazolin-2-yl)isoxazolidin-3-yl)-phosphonate] | 59 ± 32 | 34 ± 12 | 76 ± 4 | 102 ± 3 | 34.2 | 42.9 | 100 | EC50 [6]: 44.7 µM; EC50 [7]: 20 µM; EC50 [8]: 27 to 45 µM
6 | CCOP(=O)(OCC)[C@H]1C[C@H](c2nc3ccccc3c(=O)n2Cc2ccccc2F)ON1C (relative stereo) [trans-11f/cis-11f (90:10), Diethyl trans-(5-(3-(2-fluorobenzyl)-4-oxo-3,4-dihydroquinazolin-2-yl)-2-methylisoxazolidin-3-yl)-phosphonate] | 33 ± 7 | 29 ± 13 | 76 ± 11 | 77 | 6.84 | > 20 | 100 | activity toward TK- VZV strain [10]: no activity; cytotoxicity toward uninfected cells [11]: without exhibiting cytotoxicity
7 | CCOP(=O)(OCC)[C@H]1C[C@H](c2nc3ccccc3c(=O)n2Cc2cccc(F)c2)ON1C (relative stereo) [trans-11g, Diethyl trans-(5-(3-(3-fluorobenzyl)-4-oxo-3,4-dihydroquinazolin-2-yl)-2-methylisoxazolidin-3-yl)-phosphonate] | 35 ± 12 | 26 ± 6 | 62 ± 9 | 74 ± 3 |  |  |  | EC50 [6]: > 100 µM; EC50 [7]: 27.6 µM; EC50 [8]: 27 to 45 µM
8 | CCOP(=O)(OCC)[C@H]1C[C@H](c2nc3ccccc3c(=O)n2Cc2ccc(F)cc2)ON1C (relative stereo) [trans-11h, Diethyl trans-(5-(3-(4-fluorobenzyl)-4-oxo-3,4-dihydroquinazolin-2-yl)-2-methylisoxazolidin-3-yl)-phosphonate] | 26 ± 1 | 30 ± 12 | 58 ± 5 | 78 ± 1 | 15.3 | > 20 | 100 | activity toward TK- VZV strain [10]: no activity; cytotoxicity toward uninfected cells [11]: without exhibiting cytotoxicity
9 | CCOP(=O)(OCC)[C@H]1C[C@H](c2nc3ccccc3c(=O)n2Cc2ccc(F)cc2F)ON1C (relative stereo) [trans-11i/cis-11i (97:3), Diethyl trans-(5-(3-(2,4-difluorobenzyl)-4-oxo-3,4-dihydroquinazolin-2-yl)-2-methylisoxazolidin-3-yl)-phosphonate] | 26 ± 2 | 24 ± 8 | 55 ± 10 | 67 ± 4 | 9.44 | > 20 | 100 | activity toward TK- VZV strain [10]: no activity; cytotoxicity toward uninfected cells [11]: without exhibiting cytotoxicity
10 | CCOP(=O)(OCC)[C@H]1C[C@H](c2nc3ccccc3c(=O)n2C)ON1C (relative stereo) [trans-11j, Diethyl trans-(2-methyl-5-(3-methyl-4-oxo-3,4-dihydroquinazolin-2-yl)isoxazolidin-3-yl)phosphonate] | > 250 | > 250 | > 250 | > 250 |  |  |  | inhibition of cell proliferation at the highest tested concentration [5]: did not inhibit cell proliferation
11 | CCOP(=O)(OCC)[C@H]1C[C@H](c2nc3ccccc3c(=O)n2CC)ON1C (relative stereo) [trans-11k/cis-11k (97:3), Diethyl trans-(5-(3-ethyl-4-oxo-3,4-dihydroquinazolin-2-yl)-2-methylisoxazolidin-3-yl)phosphonate] | 101 ± 17 | 85 ± 13 | 97 ± 10 | 86 ± 11 | 38.8 | 41.6 | >100 | IC50 ([5]; range over L1210, CEM, read-out: IC50 towards the tested cell lines): 85 to 101 µM
12 | O=c1[nH]cc(F)c(=O)[nH]1 [5-Fluorouracil, reference compound] |  |  |  |  |  |  |  | IC50 ([1]; inhibition of cell proliferation by 50%, two days incubation): 0.33 ± 0.17 µM; IC50 ([2]; inhibition of cell proliferation by 50%, three days incubation): 18 ± 5 µM; IC50 ([3]; inhibition of cell proliferation by 50%, four days incubation): 0.54 ± 0.12 µM
13 | O=c1[nH]c(=O)n([C@H]2C[C@H](O)[C@@H](CO)O2)cc1/C=C/Br [Brivudin, reference compound] |  |  |  |  | 0.019 | 25.6 | >100 | 
14 | Nc1ccn(C[C@@H](CO)OCP(=O)(O)O)c(=O)n1 [Cidofovir, reference compound] |  |  |  |  |  |  |  | EC50 [6]: 1.49 µM; EC50 [7]: 0.23 µM; Cytotoxicity Cell Morphology MCC ([11]; Table 3 (HCMV)): >300 μM
15 | O=c1[nH]c(Cc2ccc(O)cc2)nc2ccccc12 [Compound 1, 2-(4-hydroxybenzyl)quinazolin-4(3H)-one] |  |  |  |  |  |  |  | inhibitory properties on the replication of tobacco mosaic virus (TMV) [12]: strong inhibitory properties; cytotoxicity toward various cancer cell lines [13]: significant cytotoxicity
16 | O=C(c1ccc(O)cc1)c1nc2ccccc2c(=O)[nH]1 [Compound 2] |  |  |  |  |  |  |  | melting point: 67 to 68 °C; inhibitory properties on the replication of tobacco mosaic virus (TMV) [12]: only slightly active
17 | O=c1[nH]c(-c2c[nH]c3ccccc23)nc2ccccc12 [Compound 3] |  |  |  |  |  |  |  | cytotoxicity against Vero cells [14]: cytotoxic
18 | O=c1[nH]c(-c2ccncc2)nc2ccccc12 [Compound 4] |  |  |  |  |  |  |  | activity against influenza A virus [15]: slight activity
19 | O=c1c2ccccc2nc(-c2ccncc2)n1CCCN1CCOCC1 [Compound 5] |  |  |  |  |  |  |  | activity against influenza A virus [15]: slight activity
20 | O=c1c2ccccc2nc(-c2ccncc2)n1CCCn1ccnc1 [Compound 6] |  |  |  |  |  |  |  | activity against influenza A virus [15]: slight activity
21 | Nc1nc(O)c2ncn(COC(CO)CO)c2n1 [Ganciclovir, reference compound] |  |  |  |  |  |  |  | EC50 [6]: 10.5 µM; EC50 [7]: 0.63 µM; Cytotoxicity Cell Morphology MCC ([11]; Table 3 (HCMV)): >350 μM
